Measured values reported in patent publication US20130071854A1, “METHODS FOR THE IDENTIFICATION AND CHARACTERIZATION OF HDAC INTERACTING COMPOUNDS” (priority 2009, published 2013).
Where two headings read alike, the source gives them in different places.

Columns and labels:
recombinant HDACs 1-11 = assay: Binding of probe matrix to recombinant HDACs purified from Sf9 cells, competition by free SAHA; conditions: recombinant HDACs 1-11 purified from Sf9 cells
[1] = test system: histone acetylation, K562 cells; assay: Mapping of histone acetylation by LC-MS/MS of K562 cells treated with HDACi; format: cell-based, human; conditions: K562 cells treated 6 hours, isobaric tagging and MS/MS
SAP30 = assay: Competition binding assay in cell lysate, affinity matrix, MS (Sin3 interactor); design: species or system human; conditions: K-562 cell lysate
WDR5 = target: T1, WDR5 (Homo sapiens, UniProt P61964); assay: Competition binding assay in cell lysate, affinity matrix, MS
T1 construct: endogenous in cells

APOBEC3C = target: T2, APOBEC3C (Homo sapiens, UniProt Q9NRW3); assay: as above
T2 construct: endogenous in cells

RBBP4 = conditions: K-562 cell lysate
TRERF1 = format: binding, human; conditions: protein TRERF1; ELSA (ELM-SANT) domain proteins; read-out: Kd^app TRERF1
IFNα secretion = IFNα secretion assay in peripheral blood mononuclear cells stimulated with ODN2216; conditions: Homo sapiens, PBMC, read-out: EC50 inhibition of secretion of IFNα
HDAC6 = target: T3, HDAC6 (Homo sapiens, UniProt Q9UBN7); assay: Compound screening, competition binding with SAHA-beads, antibody dot-blot arrays, Jurkat and Ramos whole cell extract; design: endogenous in cells; Jurkat/Ramos whole cell extract
T3 sequence (Q9UBN7 1-1215): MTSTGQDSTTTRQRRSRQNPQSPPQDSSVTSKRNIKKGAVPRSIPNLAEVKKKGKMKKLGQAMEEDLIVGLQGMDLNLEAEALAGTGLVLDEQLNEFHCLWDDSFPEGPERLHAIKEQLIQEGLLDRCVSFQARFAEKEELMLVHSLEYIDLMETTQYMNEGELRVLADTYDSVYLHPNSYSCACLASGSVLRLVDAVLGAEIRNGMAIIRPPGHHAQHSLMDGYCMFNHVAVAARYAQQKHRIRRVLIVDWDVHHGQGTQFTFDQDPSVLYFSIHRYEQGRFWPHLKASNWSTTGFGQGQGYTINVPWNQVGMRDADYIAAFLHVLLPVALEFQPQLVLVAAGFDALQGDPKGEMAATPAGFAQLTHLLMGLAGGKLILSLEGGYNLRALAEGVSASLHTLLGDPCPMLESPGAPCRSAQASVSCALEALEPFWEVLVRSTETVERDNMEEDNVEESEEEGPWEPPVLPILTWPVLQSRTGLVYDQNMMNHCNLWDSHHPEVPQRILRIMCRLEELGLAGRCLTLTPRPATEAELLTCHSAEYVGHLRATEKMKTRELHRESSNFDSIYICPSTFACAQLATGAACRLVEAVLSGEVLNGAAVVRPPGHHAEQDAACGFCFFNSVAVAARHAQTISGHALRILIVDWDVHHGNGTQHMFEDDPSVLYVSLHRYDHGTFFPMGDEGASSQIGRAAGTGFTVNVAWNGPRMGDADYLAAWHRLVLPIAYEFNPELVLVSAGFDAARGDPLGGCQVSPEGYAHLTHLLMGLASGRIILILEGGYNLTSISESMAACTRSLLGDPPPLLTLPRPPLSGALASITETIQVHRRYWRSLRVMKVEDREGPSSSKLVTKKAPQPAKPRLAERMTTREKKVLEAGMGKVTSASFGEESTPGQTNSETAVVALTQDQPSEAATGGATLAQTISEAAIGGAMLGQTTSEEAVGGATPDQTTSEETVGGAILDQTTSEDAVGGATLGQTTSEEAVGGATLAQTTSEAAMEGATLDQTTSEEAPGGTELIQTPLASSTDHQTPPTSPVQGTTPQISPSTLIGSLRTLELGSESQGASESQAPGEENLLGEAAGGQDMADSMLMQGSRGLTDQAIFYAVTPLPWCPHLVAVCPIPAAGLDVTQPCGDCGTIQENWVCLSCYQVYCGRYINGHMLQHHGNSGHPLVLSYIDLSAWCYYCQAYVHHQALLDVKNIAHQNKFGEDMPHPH
Text: To enable the discovery of novel selective HDACi we developed a high throughput variation of the chemoproteomics protocol in which MS/MS detection is replaced with multiplexed fluorescent antibody detection on “dot blot” type arrays. The method was applied to the screening of a focused compound library in whole cell extract of Jurkat and Ramos cells for inhibitors of HDAC1, 2, 3 and 6. Several hits were obtained with a few compounds displaying a notable degree of selectivity (FIG. 35a). […] The cellular potency for tubulin deacetylation correlated with the potency for one of the drugs' anti-inflammatory effects, the secretion of IFNα in peripheral blood mononuclear cells (FIG. 35d).
The compounds for screening was selected either for their potential to be Zinc chelators or based on a similarity search of the compound collections from Asinex Corp. (Winston-Salem, N.C., USA) and Enamine (Mammouth_Jct., NJ, USA), using a training set of 140 known HDAC inhibitors. Competition binding assays using SAHA-beads were performed essentially as described above but adapted to a 96-well format. 1 mg of cell lysate and 5 μl of beads were used per well. Compounds from the screening library including reference compounds as standards were added at 20 μM and 100 μM final concentration from 50×DMSO stocks. Each plate contained 8 positive (TSA 50 μM) and eight negative controls (2% DMSO). […]

[2] = target: MiDAC complex (HDAC1/2, DNTTIP1, CDYL, MIDEAS) (Homo sapiens, UniProt Q13547+Q92769); assay: Chemoproteomic binding profiling, K562 cell extract, SAHA/ITF2357 probe matrix (Kd app); design: Kd^app MIDEAS; other: protein MIDEAS; MiDAC complex; Kd^app DNTTIP1; other: protein DNTTIP1
Sin3 complex [3] = target: Sin3 complex (Homo sapiens, UniProt Q13547+Q92769); assay: as above
Sin3 complex [4] = assay: as above; design: species or system human
[5] = protein SAP30, read-out: Kd^app SAP30
[6] = protein SIN3A, read-out: Kd^app SIN3A
[7] = protein SIN3B, read-out: Kd^app SIN3B

T2 sequence (Q9NRW3 whole entry): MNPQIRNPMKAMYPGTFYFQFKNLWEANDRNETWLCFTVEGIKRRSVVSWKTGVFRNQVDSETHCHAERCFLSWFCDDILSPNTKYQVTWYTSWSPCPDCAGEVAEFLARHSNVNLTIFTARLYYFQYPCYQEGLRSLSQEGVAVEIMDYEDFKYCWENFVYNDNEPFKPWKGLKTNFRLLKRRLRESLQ

For O=C(CCCCCCC(=O)Nc1ccccc1)NO [SAHA, suberoylanilide hydroxamic acid], the “competition of capture of recombinant HDACs by the probe matrix (in words)” value (recombinant HDACs 1-11) was “only affected at a high excess of free SAHA”.
In the case of CCCC(CCC)C(=O)O [valproate, valproic acid], the “abundance of acetylated histone peptides (in words)” value [1] is reported as “more selective effect”.
With Nc1ccccc1NC(=O)c1ccc(CNC(=O)OCc2cccnc2)cc1 [MS-275] the IC50 (SAP30) was 300 µM, the IC50 (WDR5) was ≥ 300 µM and the IC50 (APOBEC3C) was ≥ 300 µM. The IC50 (RBBP4) was 300 µM and the Kd (TRERF1) was > 300 µM.
CCCCOc1ccc(CC(=O)NO)cc1 [bufexamac] was tested, and the EC50 (IFNα secretion) was 8.9 µM, the “screen result for HDAC6 (in words)” value (HDAC6) was “preferentially affect HDAC6” and the Kd ([2]; protein DNTTIP1, read-out: Kd^app DNTTIP1) was 418 µM. The Kd ([2]; protein MIDEAS, read-out: Kd^app MIDEAS) was 476 µM, the Kd (Sin3 complex [3]; [5]) was 125 µM and the Kd (Sin3 complex [3]; [6]) was 185 µM. For the same compound, the Kd (Sin3 complex [3]; [7]) was > 59.7 µM.
For Nc1ccccc1NC(=O)CCCCCCC(=O)Nc1ccccc1 [BML-210], the Kd (Sin3 complex [4]; [5]) was > 85 µM, the Kd (Sin3 complex [4]; [6]) was > 85 µM and the Kd (Sin3 complex [4]; [7]) was > 85 µM.
